Reference: PMC10496123, “Potent Antifungal Activity of Penta-O-galloyl-β-D-Glucose against Drug-Resistant Candida albicans, Candida auris, and Other Non-albicans Candida Species” (ACS Infectious Diseases, 2023)
≈ marks a conversion by molar mass, not a printed value. Where “and” joins values, the source holds several entries; their conditions need not be identical. Equal entries are not always repeated.

Legend:
[1] = test system: drug-sensitive C. albicans; assay: Growth inhibition in fungal growth media with 10% FBS; assay type: cell-based, Candida albicans; details: 10% fetal bovine serum; concentrations up to 512 μg mL^–1; data not shown
MDA-MB-231 = test system: MDA-MB-231; parameters: method as in PMID 33707603; details: induction of apoptosis; cited from earlier work
Acinetobacter baumanii = test system: Acinetobacter baumanii; parameters: method as in PMID 32948818; details: 21 daily passages; cited from earlier work
influenza A = test system: influenza A; parameters: method as in PMID 35033970; details: interference with viral replication; cited from earlier work
Candida albicans = assay: Growth inhibition by CLSI microbroth dilution; assay type: cell-based; details: for MIC / IC50: Candida albicans, 48 h; for MIC: >90% growth inhibition
C. auris CDC381 = assay: Iron supplementation growth inhibition assay; assay type: cell-based, Candida auris; details: 10 mM iron (II) or iron (III); PGG 4–16 μg mL^–1; 48 h
Protocol: (§1) For iron supplementation assays, growth inhibition assays were performed by microbroth dilution following the guidelines set by the CLSI.[58] A solution of iron (II) sulfate and iron (III) sulfate (VWR) was dissolved in deionized water to a concentration of 10 mM and added to treated wells at the beginning of incubation. Growth inhibition was measured after 48 h. Percent growth inhibition was determined by comparing treatments to vehicle controls. Iron supplementation experiments were repeated in duplicate with three technical replicates per treatment and on different days.

HepG2 cells = assay: CellTiter-Glo cell viability/proliferation (relative ATP); assay type: cell-based; details: Homo sapiens, HepG2, 24 h; read-out: IC50 (viable cell number reduced by 50%, relative ATP)
Protocol: (§2) Hek293 cells were purchased from BEI Resources. HaCaT cells were purchased from ATCC. HepG2 cells were provided by Dr. Edward Morgan (Emory University). Mammalian cell cultures were maintained in Dulbecco’s modified Eagle’s medium with L-glutamine and 4.5 g L^–1 glucose (Corning) supplemented with 10% fetal bovine serum (Avantor) and a 100× combination solution of 10,000 IU mL^–1 penicillin and 10,000 μg mL^–1 streptomycin (Corning) at 37 °C, 5% CO2. Mammalian cultures at 70–80% confluency were used for cell viability and cytotoxicity experiments.
(§3) ATP content as a marker for the relative viable cell number was measured with the CellTiter-Glo Luminescent Cell Viability assay (Promega Corporation). The mammalian culture was standardized at 4 × 10^3 cells per 100 μL in a Costar 3610 white plate, clear bottom 96-well plates (Corning). Cells were allowed to attach and incubate for 24 h before growth media was replaced with treatment media (PGG, 16–512 μg mL^–1) or an equivalent volume of DMSO, followed by incubation for 24 h. After incubation with treatment, plates were equilibrated to room temperature for 1 h, and then 100 μL of CellTiter-Glo reagent was added to each well and mixed for 2 min. Plates were allowed to incubate at room temperature for 10 min before luminosity was measured with an integration time of 1 s via a BioTek Cytation3 plate reader. The relative viable cell number was measured by comparing treatment samples to untreated controls. Experiments were repeated in triplicate with three technical replicates per treatment and on different days.

HaCaT cells = assay: as above; assay type: cell-based; details: Homo sapiens, 24 h, read-out: IC50 (viable cell number, relative ATP)
Protocol: as §2, §3

Hek293 cells = assay: as above; assay type: cell-based; details: Homo sapiens, HEK293, 24 h; read-out: IC50 (viable cell number reduced by 50%, relative ATP)
Protocol: as §2, §3

[2] = after oral administration in mice; cited from earlier work
MDA-MB-468 = test system: MDA-MB-468; parameters: method as in PMID 33707603; details: induction of apoptosis; cited from earlier work
[3] = cited from earlier work
mice = details: 20 mg/kg/day orally in mice; cited from earlier work
humans = details: balloon catheter, 3 mg/mL over 25 mL; cited from earlier work
HCT-116 cells = test system: HCT-116 cells; parameters: method as in PMID 27196315, PMID 29778287; details: inhibition of proliferation; cited from earlier work
Candida auris = assay: Growth inhibition by CLSI microbroth dilution; assay type: cell-based; details: Candidozyma auris, 48 h
HT-29 cells = test system: HT-29 cells; parameters: method as in PMID 27196315, PMID 29778287; details: inhibition of proliferation; cited from earlier work
C. albicans 90028 = assay: Iron supplementation growth inhibition assay; assay type: cell-based, Candida albicans; details: 10 mM iron (II) or iron (III); PGG 4–16 μg mL^–1; 48 h
Protocol: as §1

[4] = LDH chemical-induced cytotoxicity; assay type: cell-based
Protocol: as §2
The mammalian culture was standardized to 4 × 10^3 cells per 100 μL. Cells were allowed to attach and incubate for 24 h before growth media was replaced with treatment media (PGG, 16–512 μg mL^–1) or an equivalent volume of the DMSO vehicle, followed by incubation for 24 h. Plates were then evaluated with an LDH cytotoxicity assay (G Biosciences) and processed according to the manufacturer’s protocol for chemical-induced cytotoxicity. Experiments were repeated in triplicate with three technical replicates per treatment and on different days.

Candida parapsilosis = assay: Growth inhibition by CLSI microbroth dilution; assay type: cell-based; details: for IC50 / MIC: 48 h; for IC50: >50% growth inhibition; for MIC: >90% growth inhibition

SMILES: O=C(OC[C@H]1O[C@@H](OC(=O)c2cc(O)c(O)c(O)c2)[C@H](OC(=O)c2cc(O)c(O)c(O)c2)[C@@H](OC(=O)c2cc(O)c(O)c(O)c2)[C@@H]1OC(=O)c1cc(O)c(O)c(O)c1)c1cc(O)c(O)c(O)c1 [PGG, penta-O-galloyl-β-D-glucose]
- Growth inhibition in serum-supplemented medium [1]: loss of growth inhibition
- IC50/EC50 (MDA-MB-231): 50.23 µM
- Development of resistance (Acinetobacter baumanii): did not develop resistance
- IC50/EC50 (influenza A): 5.3 µg/mL (≈ 5.63 µM)
- MIC (Candida albicans; ATCC90028, strain ATCC 90028): 1 µg/mL (≈ 1.06 µM)
- IC50 (Candida albicans; ATCC90028, strain ATCC 90028, lowest concentration with >50% growth inhibition): 0.5 µg/mL (≈ 0.532 µM)
- IC50 (Candida albicans; strain MH12, >50% growth inhibition): 0.25 µg/mL (≈ 0.266 µM)
- MIC (Candida albicans; strain MH12): 0.5 µg/mL (≈ 0.532 µM)
- MIC (range over strains) (Candida albicans; two strains of C. albicans): 0.5 to 1.0 μg mL^–1
- Reduction of the growth inhibitory activity on iron supplementation (C. auris CDC381): 80–100%
- IC50 (HepG2 cells): 68 µM and 64 µg/mL
- IC50 (HaCaT cells): 32 µg/mL and 34 µM
- IC50 (Hek293 cells): 64 µg/mL and 68 µM
- Detection in plasma [2]: could not be detected
- IC50/EC50 (MDA-MB-468): 35.72 µM
- Efflux ratio [3]: high efflux ratio
- Tolerability (mice): tolerated without ill effects
- Safety in humans (humans): safely
- IC50/EC50 (HCT-116 cells): 1.61 µM
- MIC (Candida auris; strain AR Bank #0381, >90% growth inhibition): 0.25 µg/mL (≈ 0.266 µM)
- IC50 (Candida auris; strain AR Bank #0387, >50% growth inhibition): 0.5 µg/mL (≈ 0.532 µM)
- MIC (Candida auris; strain AR Bank #0387, >90% growth inhibition): 1 µg/mL (≈ 1.06 µM)
- IC50 (Candida auris; strain AR Bank #0390, >50% growth inhibition): 4 µg/mL (≈ 4.25 µM)
- MIC (Candida auris; strain AR Bank #0390, >90% growth inhibition): 8 µg/mL (≈ 8.5 µM)
- IC50/EC50 (HT-29 cells): 4.46 µM
- Reduction of the growth inhibitory activity on iron supplementation (C. albicans 90028): 80–100%
- CC50 at 24 h ([4]; HaCaT cells (keratinocytes), HaCaT (human keratinocytes)): > 272 µM
- CC50 at 24 h ([4]; HaCaT cells (keratinocytes), HaCaT (human keratinocytes), serum-supplemented medium): > 256 µg/mL
- CC50 at 24 h ([4]; Hek293 cells (kidney), Hek293 (human kidney)): > 272 µM
- CC50 at 24 h ([4]; Hek293 cells (kidney), Hek293 (human kidney), serum-supplemented medium): > 256 µg/mL
- CC50 at 24 h ([4]; HepG2 cells (liver), HepG2 (human liver)): > 272 µM
- CC50 at 24 h ([4]; HepG2 cells (liver), HepG2 (human liver), serum-supplemented medium): > 256 µg/mL
- IC50 (Candida parapsilosis; strain AR Bank #0335): 1 µg/mL (≈ 1.06 µM)
- MIC (Candida parapsilosis; strain AR Bank #0335): 4 µg/mL (≈ 4.25 µM)
- IC50 (Candida parapsilosis; strain AR Bank #0337): 0.5 µg/mL (≈ 0.532 µM)
- MIC (Candida parapsilosis; strain AR Bank #0337): 0.5 µg/mL (≈ 0.532 µM)
- IC50 (Candida parapsilosis; strain AR Bank #0338): 0.25 µg/mL (≈ 0.266 µM)
- MIC (Candida parapsilosis; strain AR Bank #0338): 0.5 µg/mL (≈ 0.532 µM)
- IC50 (Candida parapsilosis; strain AR Bank #0339): 0.5 µg/mL (≈ 0.532 µM)
- MIC (Candida parapsilosis; strain AR Bank #0339): 1 µg/mL (≈ 1.06 µM)
- MIC (range over strains) (Candida parapsilosis; four strains of C. parapsilosis): 0.5 to 4.0 μg mL^–1
